For one molecule, drug release, solubility and permeability results are on record in patent US20130245061A1, “PHARMACEUTICAL COMPOSITIONS” (NOVARTIS AG, priority 2010, published 2013).

A short description of data set [1]: 2-Step Dissolution Test (pH 2 then pH 6.8). Format: physicochemical. The settings on record: pH 6.8, second step; FIG. 2. As to the method: Capsules containing either Compound A alone, Formulation Variant 1 or Variant 2 are placed in 900 mL of pH 2 HCl and then stirred in a USP Apparatus II rotating at 50 rpm for 10 to 100 minutes (with fast stir from about minute 60 to minute 90). At approximately the 100 minute time point, this medium is adjusted to pH 6.8 and to a volume of 1000 ml and then stirred in a USP Apparatus II rotating at 50 rpm. Samples are filtered using a 100 μm Varian full flow filter and analyzed by UV.
Capsules containing either Compound A alone, Formulation Variants 1 or 2 are separately evaluated using a 2-Step Dissolution Test. This analysis compared the dissolution profile of capsules containing 68.5 mg per unit of 2-methyl-2-[4-(3-methyl-2-oxo-8-quinolin-3-yl-2,3-dihydro-imidazo[4,5-c]quinolin-1-yl)-phenyl]-propionitrile monotosylate salt (which is equivalent to 50 mg of the free base of 2-methyl-2-[4-(3-methyl-2-oxo-8-quinolin-3-yl-2,3-dihydro-imidazo[4,5-c]quinolin-1-yl)-phenyl]-propionitrile) at pH 2 and pH 6.8.
For this analysis, capsules containing either Compound A alone, Formulation Variant 1 or Variant 2 are placed in 900 mL of pH 2 HCl and then stirred in a USP Apparatus II rotating at 50 rpm for 10-100 minutes (with fast stir from about minute 60 to minute 90). […] Samples are filtered using a 100 μm Varian Full Flow filter and analyzed by HPLC.

A short description of data set [2]: pH-dependent solubility of the therapeutic compound. Format: physicochemical. As to conditions: pH higher than 3.
Data set [3] can be described thus: permeability of the therapeutic compound. The format is in vitro ADME.

In the case of `Cn1c(=O)n(-c2ccc(C(C)(C)C#N)cc2)c2c3cc(-c4cnc5ccccc5c4)ccc3ncc21` [Compound A, 2-methyl-2-[4-(3-methyl-2-oxo-8-quinolin-3-yl-2,3-dihydro-imidazo[4,5-c]quinolin-1-yl)-phenyl]-propionitrile], the drug release result in data set [1] is on record as “approximately 0%”. In addition, the solubility entry in data set [2] is “approximately 0%”. Besides, in data set [3], the permeability entry is on record as “low”.
